A word on the inhibition: it is the change of the read-out against control, counted positive when it falls. What is called IC50 is the concentration at which inhibition is half-maximal.

Our source for the inhibition, IC50 and K0.5 values is ChEMBL document CHEMBL4433199, “First-in-class allosteric inhibitors of bacterial IMPDHs” (Eur J Med Chem, 2019).

Assay [1] concerns the target T1, Inosine-5'-monophosphate dehydrogenase (Pseudomonas aeruginosa (strain ATCC 15692 / DSM 22644 / CIP 104116 / JCM14847 / LMG 12228 / 1C / PRS 101 / PAO1)) (UniProt Q9HXM5).
T1 sequence (whole entry): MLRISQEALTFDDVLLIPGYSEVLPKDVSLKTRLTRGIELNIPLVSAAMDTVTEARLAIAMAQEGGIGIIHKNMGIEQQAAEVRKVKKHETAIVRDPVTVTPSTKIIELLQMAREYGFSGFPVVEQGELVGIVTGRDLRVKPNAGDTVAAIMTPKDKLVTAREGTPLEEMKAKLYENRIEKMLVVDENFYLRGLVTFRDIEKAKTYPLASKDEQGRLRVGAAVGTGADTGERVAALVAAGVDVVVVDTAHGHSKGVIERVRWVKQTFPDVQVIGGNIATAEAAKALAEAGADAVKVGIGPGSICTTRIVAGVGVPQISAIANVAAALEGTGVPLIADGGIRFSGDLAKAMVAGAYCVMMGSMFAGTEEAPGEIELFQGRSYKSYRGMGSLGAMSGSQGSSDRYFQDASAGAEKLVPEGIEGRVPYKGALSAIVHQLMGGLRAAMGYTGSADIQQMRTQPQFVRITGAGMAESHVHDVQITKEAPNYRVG
The assay is described as follows: Inhibition of Pseudomonas aeruginosa IMPDH at 50.8 uM using IMP as substrate in the presence of NAD+ incubated for 70 secs relative to control.

In assay [2] the target is T1, Inosine-5'-monophosphate dehydrogenase (Pseudomonas aeruginosa (strain ATCC 15692 / DSM 22644 / CIP 104116 / JCM14847 / LMG 12228 / 1C / PRS 101 / PAO1)). The assay is described as follows: Non-competitive inhibition of Pseudomonas aeruginosa IMPDH using IMP as substrate and NAD+ in presence of ATP incubated for 70 secs.
The target in assay [3] is T2, Inosine-5'-monophosphate dehydrogenase (Pseudomonas aeruginosa (strain ATCC 15692 / DSM 22644 / CIP 104116 / JCM14847 / LMG 12228 / 1C / PRS 101 / PAO1), UniProt Q9HXM5).
T2 sequence (Q9HXM5 whole entry): T1 sequence (whole entry)
Nature of the assay: Inhibition of Pseudomonas aeruginosa IMPDH using IMP as substrate in the presence of NAD+ incubated for 70 secs.

Assay [4] has as its target T1, Inosine-5'-monophosphate dehydrogenase (Pseudomonas aeruginosa (strain ATCC 15692 / DSM 22644 / CIP 104116 / JCM14847 / LMG 12228 / 1C / PRS 101 / PAO1)). Nature of the assay: Inhibition of Pseudomonas aeruginosa IMPDH at 43.1 uM using IMP as substrate in the presence of NAD+ incubated for 70 secs relative to control.
The target is the same in assay [5]. The assay is described as follows: Inhibition of Pseudomonas aeruginosa IMPDH at 43.4 uM using IMP as substrate in the presence of NAD+ incubated for 70 secs relative to control.
The target is the same in assay [6]. The assay is described as follows: Inhibition of Pseudomonas aeruginosa IMPDH at 40 uM using IMP as substrate in the presence of NAD+ incubated for 70 secs relative to control.
Assay [7] has the same target. The assay is described as follows: Inhibition of Pseudomonas aeruginosa IMPDH at 38.5 uM using IMP as substrate in the presence of NAD+ incubated for 70 secs relative to control.
For assay [8] the target is unchanged. Nature of the assay: Inhibition of Pseudomonas aeruginosa IMPDH at 39.6 uM using IMP as substrate in the presence of NAD+ incubated for 70 secs relative to control.
The target is the same in assay [9]. Nature of the assay: Competitive inhibition of Pseudomonas aeruginosa IMPDH using IMP as substrate and NAD+ in presence of varying ATP incubated for 70 secs.
Assay [10] has the same target. The assay is described as follows: Inhibition of Pseudomonas aeruginosa IMPDH at 47.1 uM using IMP as substrate in the presence of NAD+ incubated for 70 secs relative to control.
The target is the same in assay [11]. Nature of the assay: Inhibition of Pseudomonas aeruginosa IMPDH at 47.2 uM using IMP as substrate in the presence of NAD+ incubated for 70 secs relative to control.
Assay [12] has the same target. The assay is described as follows: Inhibition of Pseudomonas aeruginosa IMPDH assessed as Km for IMP at 20 uM using IMP as substrate in presence of 2 mM NAD+ and 0.2 mM MgATP (reference value: 483 +/- 65 microM).
The target is the same in assay [13]. Nature of the assay: Inhibition of Pseudomonas aeruginosa IMPDH at 42.9 uM using IMP as substrate in the presence of NAD+ incubated for 70 secs relative to control.
For assay [14] the target is unchanged. The assay is described as follows: Inhibition of Pseudomonas aeruginosa IMPDH at 44.7 uM using IMP as substrate in the presence of NAD+ incubated for 70 secs relative to control.
For assay [15] the target is unchanged. Nature of the assay: Inhibition of Pseudomonas aeruginosa IMPDH at 55.9 uM using IMP as substrate in the presence of NAD+ incubated for 70 secs relative to control.
Assay [16] has the same target. Nature of the assay: Inhibition of Pseudomonas aeruginosa IMPDH at 48.2 uM using IMP as substrate in the presence of NAD+ incubated for 70 secs relative to control.

Active and inactive are the calls of the source. The rule behind the calls is not given here.

As for `COc1ccccc1-c1noc(CCC(=O)Nc2ccc(Cl)cc2)n1`, the inhibition in [1] came to 70.6%. Moreover, in assay [2], the inhibition entry was “Active”. Besides, in [3] (read-out: IC50), the concentration for half-maximal inhibition (IC50) worked out at 2.6 µM.
For the compound `CN(Cc1ccccc1)Cc1nc2c(c(=O)n(C)c(=O)n2C)n1Cc1ccccc1F`, the IC50 result in assay [3] is listed as “Not Active”. Further, in [4], the inhibition was determined as 93.3%.
Regarding `O=C(CCS(=O)(=O)c1ccc2c(c1)SCC(=O)N2)NCCCc1ccccc1`, in assay [2], the inhibition result was “Active”. Also, the inhibition in assay [5] turned out to be 76.7%. The IC50 in assay [3] (read-out: IC50) worked out at 3.1 µM.
On to `COc1ccc(CCNc2nc3cc(Cl)c(Cl)cc3nc2-n2nc(C)cc2C)cc1OC`, for which the values for the inhibition in assay [6] and in [7] were 20% and 77.8%, respectively.
Consider `COc1ccc(-c2cc(C(=O)O)nc3[nH]nc(-c4ccc(C)cc4)c23)cc1Br`, for which the inhibition in assay [8] worked out at 83.1%. In addition, in [9], the inhibition result was “Active”. In [3] (read-out: IC50), the IC50 is 11.7 µM.
Turning to `CC(=O)Nc1ccc(-c2cc(C(=O)O)nc3[nH]nc(-c4ccc(C)cc4)c23)cc1`, in assay [9], the inhibition entry is “Active”. Further, the inhibition in assay [10] is 78.3%. Further, in assay [3] (read-out: IC50), the IC50 came out at 23 µM.
Regarding `CC(=O)N1CCOc2cc(S(=O)(=O)Nc3ccc(F)c(Cl)c3)ccc21`, the inhibition entry in assay [9] was “Active”. For the same compound, in [11], the inhibition is 81.5%. Also, the K0.5 in assay [12] was determined as 747 µM. In [3] (read-out: IC50), the IC50 is 17.1 µM.
Take `CCc1oc2ccccc2c1C(=O)c1cc(Br)c(O)c(Br)c1` [BENZBROMARONE]: the inhibition in [13] is 73.3%. Also, the IC50 in [3] (read-out: IC50) worked out at 55 µM.
With `CC(=O)Nc1ccc(-c2cc(C(=O)O)nc3[nH]nc(-c4ccc(Cl)cc4)c23)cc1`, in assay [9], the inhibition entry is “Active”. Moreover, the inhibition in assay [14] was 73.2%. In addition, in assay [3] (read-out: IC50), the IC50 was 19 µM.
`COc1cccc(CNC(=O)Cn2ncc3ccccc32)c1OC`: in [15], the inhibition came out at 95.2%. Moreover, the IC50 result in [3] is recorded as “Not Active”.
Turning to `Cc1ccc(-n2c(=O)[nH]cc(C(=O)Nc3ccc(C(C)C)cc3)c2=O)cc1C`, in assay [16], the inhibition came out at 75.4%. Besides, the IC50 result in assay [3] is on record as “Not Active”.
